The values that follow come from publication PMC10175918 (Communications Biology, 2023).

What all share (test): TGFα-shedding assay-based GPCR screening with chimeric Gα subunit proteins
Format in all cases: cell-based

The target in assay [1] is T1, 348 GPCRs (Homo sapiens, UniProt P24530).
T1 construct: expressed in transfected cells; host or cells: HEK293A
T1 sequence (P24530 27-442): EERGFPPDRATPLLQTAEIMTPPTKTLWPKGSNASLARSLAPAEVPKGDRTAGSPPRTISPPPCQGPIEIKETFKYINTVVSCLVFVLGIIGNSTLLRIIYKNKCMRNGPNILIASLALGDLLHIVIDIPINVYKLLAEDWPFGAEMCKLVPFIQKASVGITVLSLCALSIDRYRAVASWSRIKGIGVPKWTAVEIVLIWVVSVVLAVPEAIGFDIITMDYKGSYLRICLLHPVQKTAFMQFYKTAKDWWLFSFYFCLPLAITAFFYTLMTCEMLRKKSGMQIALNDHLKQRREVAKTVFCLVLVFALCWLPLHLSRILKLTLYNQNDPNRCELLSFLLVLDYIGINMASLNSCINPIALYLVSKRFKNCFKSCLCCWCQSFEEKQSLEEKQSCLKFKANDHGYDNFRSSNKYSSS
The following applies: 10µM, Favipiravir 100μM.

In assay [2] the target is T2, 348 GPCRs (Homo sapiens, UniProt P29371).
T2 construct: expressed in transfected cells; host or cells: HEK293A
T2 sequence (P29371 1-465): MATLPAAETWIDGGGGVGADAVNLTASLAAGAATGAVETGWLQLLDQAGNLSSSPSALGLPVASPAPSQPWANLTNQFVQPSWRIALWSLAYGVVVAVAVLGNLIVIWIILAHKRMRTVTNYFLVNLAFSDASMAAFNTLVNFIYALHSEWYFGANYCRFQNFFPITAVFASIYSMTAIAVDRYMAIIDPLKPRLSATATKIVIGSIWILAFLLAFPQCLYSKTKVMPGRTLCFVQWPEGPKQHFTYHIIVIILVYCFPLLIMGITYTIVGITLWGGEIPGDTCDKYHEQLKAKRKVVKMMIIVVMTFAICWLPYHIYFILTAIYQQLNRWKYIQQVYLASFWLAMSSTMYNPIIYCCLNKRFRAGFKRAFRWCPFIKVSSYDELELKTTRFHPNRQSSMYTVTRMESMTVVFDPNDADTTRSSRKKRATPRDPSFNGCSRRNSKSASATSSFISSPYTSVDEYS
The following applies: 10µM, Favipiravir 100μM.

For assay [3], the target named is T3, 348 GPCRs (Homo sapiens, UniProt P43088).
T3 construct: expressed in transfected cells; host or cells: HEK293A
The following applies: 10µM, Favipiravir 100μM.

In assay [4] the target is T4, 348 GPCRs (Homo sapiens, UniProt Q8IZF2).
T4 construct: expressed in transfected cells; host or cells: HEK293A
T4 sequence (Q8IZF2 22-1346): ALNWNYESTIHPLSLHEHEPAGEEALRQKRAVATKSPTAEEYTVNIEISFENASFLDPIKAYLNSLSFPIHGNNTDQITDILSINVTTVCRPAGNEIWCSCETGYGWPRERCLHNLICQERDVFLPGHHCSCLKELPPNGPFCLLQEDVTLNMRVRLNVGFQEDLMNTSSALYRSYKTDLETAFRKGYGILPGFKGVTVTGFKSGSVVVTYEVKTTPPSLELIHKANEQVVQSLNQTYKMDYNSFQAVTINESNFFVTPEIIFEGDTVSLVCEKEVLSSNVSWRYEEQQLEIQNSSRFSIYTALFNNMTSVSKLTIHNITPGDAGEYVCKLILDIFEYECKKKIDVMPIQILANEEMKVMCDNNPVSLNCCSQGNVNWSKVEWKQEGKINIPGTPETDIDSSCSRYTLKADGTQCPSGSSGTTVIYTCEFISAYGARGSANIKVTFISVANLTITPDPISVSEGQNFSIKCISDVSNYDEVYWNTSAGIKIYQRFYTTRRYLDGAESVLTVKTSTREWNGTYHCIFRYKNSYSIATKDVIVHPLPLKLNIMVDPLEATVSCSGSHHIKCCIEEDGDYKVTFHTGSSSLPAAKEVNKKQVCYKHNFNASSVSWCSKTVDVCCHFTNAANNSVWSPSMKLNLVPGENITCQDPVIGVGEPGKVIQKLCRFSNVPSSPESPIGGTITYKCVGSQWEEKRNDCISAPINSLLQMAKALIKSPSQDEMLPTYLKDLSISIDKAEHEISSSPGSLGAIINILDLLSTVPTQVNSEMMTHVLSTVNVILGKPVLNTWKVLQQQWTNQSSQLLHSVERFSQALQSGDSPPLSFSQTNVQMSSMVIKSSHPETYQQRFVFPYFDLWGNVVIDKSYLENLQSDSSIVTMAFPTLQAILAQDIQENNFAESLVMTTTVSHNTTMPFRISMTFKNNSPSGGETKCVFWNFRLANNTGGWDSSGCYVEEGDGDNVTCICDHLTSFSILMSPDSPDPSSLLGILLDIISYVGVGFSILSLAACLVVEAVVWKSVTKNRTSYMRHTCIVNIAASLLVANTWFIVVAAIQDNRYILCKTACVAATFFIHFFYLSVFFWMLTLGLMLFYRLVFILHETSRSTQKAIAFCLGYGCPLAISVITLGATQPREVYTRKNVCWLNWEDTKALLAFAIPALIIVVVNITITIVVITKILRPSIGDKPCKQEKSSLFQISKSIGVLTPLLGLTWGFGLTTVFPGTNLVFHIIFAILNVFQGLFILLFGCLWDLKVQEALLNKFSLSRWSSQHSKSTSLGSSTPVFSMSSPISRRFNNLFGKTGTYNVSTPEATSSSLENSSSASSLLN

The target of assay [5] is T5, 348 GPCRs (Homo sapiens, UniProt Q8NGU9).
T5 construct: expressed in transfected cells; host or cells: HEK293A
The following applies: 10µM, Favipiravir 100μM.

Assay [6] concerns the target T6, 348 GPCRs (Homo sapiens, UniProt Q9NYV9).
T6 construct: expressed in transfected cells; host or cells: HEK293A
T6 sequence (Q9NYV9 1-303): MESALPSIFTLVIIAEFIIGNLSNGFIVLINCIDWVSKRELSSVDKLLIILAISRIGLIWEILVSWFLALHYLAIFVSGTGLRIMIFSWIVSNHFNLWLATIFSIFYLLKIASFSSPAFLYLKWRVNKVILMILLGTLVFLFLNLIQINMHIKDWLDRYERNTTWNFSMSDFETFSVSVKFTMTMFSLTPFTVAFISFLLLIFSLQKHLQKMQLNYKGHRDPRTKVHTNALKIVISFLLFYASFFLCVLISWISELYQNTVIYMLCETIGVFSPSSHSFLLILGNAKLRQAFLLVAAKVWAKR
The following applies: 10µM, Favipiravir 100μM.

[7] abbreviates: EDNRB (endothelin receptor type B), read-out: % GPCR activation compared to TPA.
[8] abbreviates: NK3 (tachykinin receptor 3), read-out: % GPCR activation compared to TPA.
Where [9] appears, read: FP (prostaglandin F receptor), read-out: % GPCR activation compared to TPA.
[10] abbreviates: GPR150 (G protein-coupled receptor 150), read-out: % GPCR activation compared to TPA.
Where [11] appears, read: TAS2R13 (taste receptor, type 2, member 13), read-out: % GPCR activation compared to TPA.
Setting [12] is: read-out: % GPCR activation compared to TPA, EDNRB (endothelin receptor type B).
The mark [13] stands for this setting: read-out: % GPCR activation compared to TPA, NK3 (tachykinin receptor 3).
Where [14] appears, read: read-out: % GPCR activation compared to TPA, FP (prostaglandin F receptor).
Where [15] appears, read: read-out: % GPCR activation compared to TPA, GPCR GPR116 (G-protein-coupled receptor 116 (ADGRF5)).
Where [16] appears, read: read-out: % GPCR activation compared to TPA, GPR150 (G protein-coupled receptor 150).
Where [17] appears, read: read-out: % GPCR activation compared to TPA, TAS2R13 (taste receptor, type 2, member 13).
Setting [18] is: GPCR GPR116 (G-protein-coupled receptor 116 (ADGRF5)), read-out: % GPCR activation compared to TPA.

Molecules are shown by their SMILES. Read-outs that look alike come from different tables or passages of the source.

T3 sequence (P43088 whole entry): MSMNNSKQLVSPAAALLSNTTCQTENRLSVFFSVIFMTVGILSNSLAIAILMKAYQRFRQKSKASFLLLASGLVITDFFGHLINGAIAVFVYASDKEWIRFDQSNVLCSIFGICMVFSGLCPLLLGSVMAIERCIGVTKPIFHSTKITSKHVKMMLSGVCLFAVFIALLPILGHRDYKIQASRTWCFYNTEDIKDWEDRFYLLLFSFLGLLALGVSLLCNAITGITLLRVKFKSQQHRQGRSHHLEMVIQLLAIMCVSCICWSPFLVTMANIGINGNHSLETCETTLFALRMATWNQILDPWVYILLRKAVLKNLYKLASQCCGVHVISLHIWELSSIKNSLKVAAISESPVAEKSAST
T5 sequence (Q8NGU9 whole entry): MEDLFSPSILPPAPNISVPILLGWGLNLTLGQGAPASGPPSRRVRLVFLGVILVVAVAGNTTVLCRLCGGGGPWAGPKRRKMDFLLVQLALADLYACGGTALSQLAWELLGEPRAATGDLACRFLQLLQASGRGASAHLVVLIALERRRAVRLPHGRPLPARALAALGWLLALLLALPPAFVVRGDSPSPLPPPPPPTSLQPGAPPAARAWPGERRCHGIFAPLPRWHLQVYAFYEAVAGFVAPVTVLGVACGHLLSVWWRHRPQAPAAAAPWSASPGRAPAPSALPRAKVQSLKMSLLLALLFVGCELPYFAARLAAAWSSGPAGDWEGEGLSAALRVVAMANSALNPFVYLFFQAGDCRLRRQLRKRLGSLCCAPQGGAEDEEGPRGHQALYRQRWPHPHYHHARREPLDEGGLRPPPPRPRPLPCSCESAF

Turning to `NC(=O)c1nc(F)cnc1O` [favipiravir, 6-fluoro-3-hydroxy-2-pyrazinecarboxamide], the activation at 100 µM on 348 GPCRs [1] (setting [7]) is -3.11%; on 348 GPCRs [4] (GPCR GPR116 (G-protein-coupled receptor 116 (ADGRF5)), 100μM, read-out: % GPCR activation compared to TPA), -1.79%; at 348 GPCRs [5] (setting [10]), -0.462%; at 348 GPCRs [6] (setting [11]) it was -1.06%. The values for the activation at 10 µM at 348 GPCRs [2] (setting [8]) and at 348 GPCRs [3] (setting [9]) were -0.777% and 0.208%, respectively.

Regarding `CC(C)OC(=O)[C@H](C)N[P@](=O)(OC[C@H]1O[C@@H](n2ccc(=O)[nH]c2=O)[C@](C)(F)[C@@H]1O)Oc1ccccc1` [sofosbuvir], the activation at 100 µM at 348 GPCRs [1] (setting [12]) is -2.57%; on 348 GPCRs [5] (setting [16]), 0.239%; on 348 GPCRs [6] (setting [17]), -2.09%. Further, the activation at 10 µM at 348 GPCRs [2] (setting [13]) is -1.94%; at 348 GPCRs [3] (setting [14]) it was -2.66%; at 348 GPCRs [4] (setting [15]), -0.621%.

`CCC(CC)COC(=O)[C@H](C)N[P@](=O)(OC[C@H]1O[C@@](C#N)(c2ccc3c(N)ncnn23)[C@H](O)[C@@H]1O)Oc1ccccc1` [remdesivir]: the activation at 100 µM on 348 GPCRs [1] (setting [12]) is -2.2%; on 348 GPCRs [5] (setting [16]), 6.96%; on 348 GPCRs [6] (setting [17]), 1.1%. Also, the activation at 10 µM was -0.179% at 348 GPCRs [2] (setting [13]), 1.47% on 348 GPCRs [3] (setting [14]) and -2.59% on 348 GPCRs [4] (setting [15]).

For `N#C[C@@]1(c2ccc3c(N)ncnn23)O[C@H](CO)[C@@H](O)[C@H]1O` [GS441524], the activation at 100 µM at 348 GPCRs [1] (setting [7]) was -4.24%; at 348 GPCRs [5] (setting [10]) it was 0.708%; on 348 GPCRs [6] (setting [11]) it was 0.783%. Also, the figures for the activation at 10 µM at 348 GPCRs [2] (setting [8]), on 348 GPCRs [3] (setting [9]) and on 348 GPCRs [4] (setting [18]) were -0.811%, 0.154% and -2.91%, respectively.

On to `CC(C)C(=O)OC[C@H]1O[C@@H](n2ccc(NO)nc2=O)[C@H](O)[C@@H]1O` [molnupiravir], for which the activation at 100 µM at 348 GPCRs [1] (setting [7]) was -3.6%; on 348 GPCRs [5] (setting [10]), -6.13%; at 348 GPCRs [6] (setting [11]), -0.971%. Besides, the activation at 10 µM at 348 GPCRs [2] (setting [8]) is -1.59%; on 348 GPCRs [3] (setting [9]) it was -0.35%; at 348 GPCRs [4] (setting [18]) it was -2.23%.
